Assay results taken from EP4610260B1, “ARYL HETEROCYCLIC KV1.3 INHIBITOR, PREPARATION METHOD THEREFOR, AND USE THEREOF” (Shanghai Shenshi Wise Technology Co., Ltd., priority 2022, dated 2024).

Test system: Kv1.3 potassium channel
Test: Whole-cell patch-clamp assay for inhibitory activity against Kv1.3 (peak current)
Type: cell-based
Conditions: HEK293 cells stably expressing Kv1.3, room temperature
Protocol: 1. Assay for inhibitory activity of compounds against Kv1.X
HEK293 cells stably expressing Kv1.X (Kv1.1, Kv1.2, Kv1.3, Kv1.4, Kv1.5) potassium channels were cultured in DMEM medium containing 10% fetal bovine serum and 800 µg/mL G418 (geneticin) at a culture temperature of 37 °C and a carbon dioxide concentration of 5%.
1.2. Fluids used for recording
The extracellular fluid contained 40 mM NaCl, 3.5 mM KCl, 1 mM MgCl2•6H2O, 2 mM CaCl2•2H2O, 10 mM D-glucose, 10 mM HEPES, 1.25 mM NaH2PO4•2H2O, and the pH was adjusted to 7.4 with NaOH. The intracellular fluid contained 20 mM KCl, 115 mM K-Aspartic, 1 mM MgCl2•6H2O, 5 mM EGTA, 10 mM HEPES, 2 mM Na2-ATP, and the pH was adjusted to 7.2 with KOH.
The voltage stimulation protocol for recording whole-cell Kv1.X potassium currents via patch-clamp was as follows: After formation of a whole-cell seal, the cell membrane voltage was clamped at -80 mV, and then stepped to +40 mV for 500 ms. Data were acquired repeatedly every 30 s and the effect of the drug on Kv1.X currents was observed. […] Then, a slow capacitance compensation was given, and the membrane capacitance and series resistance were recorded. […]
Once the whole-cell recorded Kv1.X current stabilized, drug administration was started. […] For each cell, the current detected in the compound-free extracellular liquid was used as its own control group. […]

Compound	IC50
Oc1ccc(Cl)c(Cl)c1[C@@H]1Cc2nnc([C@H]3C[C@@H](O)C3)n2C1 [Example 70, 3,4-Dichloro-2-((S)-3-((1s,3R)-3-hydroxycyclobutyl)-6,7-dihydro-5H-pyrrolo[2,1-c][1,2,4]triazol-6-yl)phenol]	21.6 nM
Oc1ccc(Cl)c(Cl)c1[C@@H]1Cc2nnc([C@H]3C[C@H](O)C3)n2C1 [Example 71, 3,4-dichloro-2-((S)-3-((1r,3S)-3-hydroxycyclobutyl)-6,7-dihydro-5H-pyrrolo[2,1-c][1,2,4]triazol-6-yl)phenol]	10.3 nM
